Measurements published in US9977014B2, “Nanoparticle sensor for nucleic acid-protein interaction” (Agency for Science, Technology and Research, priority 2013, dated 2018).

Assays:
[1] = tested on: FoxA1 and AP2γ; assay: Ligand selectivity (positive = inhibitor, negative) listed in Table 3; type: binding; design: key: Positive: A positive ligand refers to a ligand that can inhibit protein binding to DNA; Negative: a negative ligand is a ligand that does not interrupt the binding
From the text: 9 small ligands (as described in Table 3) were used to disrupt the DNA-protein interaction. […] It must be clearly understood that a particular ligand can bind strongly (with high affinity) to a certain protein but not inhibit the subsequent protein binding to DNA and vice versa. The main objective of this assay is to screen ligands that can interrupt protein binding to DNA regardless of their affinity to the protein. All of the ligands were kept as solutions in DMSO. Before using, they were thawed in a room temperature water bath.

[2] = biological target: T1, FoxA1 (Homo sapiens, UniProt P55317); assay: Ligand inhibition of DNA-protein interaction, CP/Probe2-AuNP hybrid sensor; type: binding; settings: protein:ligand 1:8
T1 construct: Full-length FoxA1 cDNA was cloned into a pHISMBP (Addgene) expression vector; made in house; host or cells: E. coli BL21 (DE3)
T1 sequence (P55317 1-472): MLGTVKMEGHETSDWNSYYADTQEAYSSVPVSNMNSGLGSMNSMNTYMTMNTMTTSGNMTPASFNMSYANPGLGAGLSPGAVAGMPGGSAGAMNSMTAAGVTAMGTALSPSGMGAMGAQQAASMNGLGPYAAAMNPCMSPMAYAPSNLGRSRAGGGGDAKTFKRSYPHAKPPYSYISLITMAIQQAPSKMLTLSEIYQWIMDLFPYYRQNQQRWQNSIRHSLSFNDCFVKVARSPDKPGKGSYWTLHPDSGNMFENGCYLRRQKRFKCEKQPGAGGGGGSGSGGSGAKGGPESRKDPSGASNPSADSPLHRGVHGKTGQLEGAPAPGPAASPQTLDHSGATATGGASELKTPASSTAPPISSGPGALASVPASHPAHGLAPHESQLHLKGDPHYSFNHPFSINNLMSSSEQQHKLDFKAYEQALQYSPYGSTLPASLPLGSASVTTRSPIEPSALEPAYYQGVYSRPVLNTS
Description: For screening of ligand inhibition of the DNA-protein interaction (FIG. 4(B)), the ligand and protein were incubated at a molar ratio of 8:1 for 10-20 min at RT prior to the addition of dsDNA-AuNP in step (1) above. Steps (1), (2) and (3) were then repeated.
The proteins and each ligand were mixed at a ratio of 1:8 for 10 min. The protein-ligand pre-incubation solution was then mixed with dsDNA-AuNP and further incubated for 20 mins. The CP was then added as the last step. Positive and negative controls were also prepared, where the positive control was dsDNA-AuNP incubated with protein without ligand, and the negative control was dsDNA-AuNPs incubated without any protein added.

[3] = biological target: T1, FoxA1; assay: CP/dsDNA-AuNP hybrid sensor protein titration; settings: read-out: Binding constant (Kd)
Description: Qualitatively, the affinity of FOxA1 to different DNA probes can be identified by the degree of change in fluorescence intensity. For measuring the binding affinity constant Kd, protein titration was conducted using protein:DNA molar ratios of 0:1 to 5:1. That is, in a 50 nM solution of dsDNA-AuNPs, protein was added to achieve a concentration of 0-250 nM. The respective fluorescence intensity of the subsequent CP emission was recorded and compared with a control reaction containing no protein (FIG. 12).

[4] = biological target: T1, FoxA1; assay: Electrophoretic Mobility Shift Assay (EMSA), DNA probe binding; settings: read-out: Binding constant (Kd)
From the text: (§1) Electrophoretic Mobility Shift Assay (EMSA): Invitrogen Corporation, Panomics Inc., Pierce Biotechnology, Viagene Inc.

[5] = biological target: T2, His-MBP-FoxA1 (Homo sapiens, UniProt P55317); assay: Fluorescence anisotropy (FA) with FAM-labelled DNA probes; settings: read-out: Binding constant (Kd)
T2 construct: Full-length FoxA1 cDNA was cloned into a pHISMBP (Addgene) expression vector; made in house; host or cells: E. coli BL21 (DE3)
T2 sequence (P55317 1-472): T1 sequence (P55317 1-472)
Description: Fluorescence anisotropy (FA): To determine the binding activity of His-MBP-FoxA1 to various FoxA1 probes containing its cognate DNA element, fluorescence anisotropy (FA) assay was utilized. The wildtype and two mutant probes for FoxA1, labelled with carboxyfluorescein (FAM), are as described earlier in Table 1. The assays were carried out in 384-well microplates (Corning) in which varying concentrations of protein were incubated with 2 nM of the labelled probe in PBS buffer for 20 min at room temperature (RT). To examine the effects of small molecule inhibitors on FoxA1 DNA binding, 125 nM of protein was pre-incubated with 5% DMSO, or 1 mM unlabelled probe, or 1.9 mM inhibitor for 1 h, at room temperature (RT), before the addition of 2 nM of the FAM labelled probe for another hour incubation.
Fluorescence anisotropy was measured using Synergy 2 Multi-Mode Microplate Reader with a 485/20-excitation and a 528/20-emission filter. The equilibrium dissociation constants for each wild-type probe were subsequently calculated by fitting the FoxA1 concentration vs. fluorescence polarization plot using Langmuir isotherm in Origin Pro 8 software. Standard error values (precision of the fitted values) were also obtained from the software after fitting.

[6] = biological target: T3, AP-2γ (Homo sapiens, UniProt Q92754); assay: Electrophoretic Mobility Shift Assay (EMSA), DNA probe binding; design: made in house; settings: read-out: Binding constant (Kd)
From the text: as §1

[7] = biological target: T3, AP-2γ; assay: CP/dsDNA-AuNP hybrid sensor protein titration
Description: The protein-DNA binding assay was conducted in three main steps (FIG. 4(A)): • 1) 50 nM dsDNA-AuNPs (referring to dsDNA concentration on the surface of AuNPs) was incubated with protein for 20-40 min at room temperature (RT).
Based on the relationship between protein concentration and fluorescence intensity, the binding constant, Kd, can be calculated using the equation: (F0−F)/(F−Fsat)=([protein]/Kd)^n. […] The slope, n, is the binding stoichiometry of protein to DNA.
The assay was also used to study a second transcription factor, AP-2γ (pI˜7.8), to test the applicability of the method. wtR3 and mtR3 were used as the probe DNA sequences (Table 2). […] From the relative decrease and increase in fluorescent intensity of CP with increasing concentration of AP-2γ, the binding affinity Kd and n were determined.

[8] = biological target: T3, AP-2γ; assay: Fluorescence anisotropy (FA) with labelled DNA probes; design: made in house; settings: read-out: Binding constant (Kd)
[9] = CP/dsDNA-AuNPs hybrid sensor (ACP-430)
[10] = CP/dsDNA-AuNPs hybrid sensor (ACP-560)
[11] = CP/dsDNA-AuNPs hybrid sensor (CCP-410)

T3 sequence (Q92754 whole entry, species assumed): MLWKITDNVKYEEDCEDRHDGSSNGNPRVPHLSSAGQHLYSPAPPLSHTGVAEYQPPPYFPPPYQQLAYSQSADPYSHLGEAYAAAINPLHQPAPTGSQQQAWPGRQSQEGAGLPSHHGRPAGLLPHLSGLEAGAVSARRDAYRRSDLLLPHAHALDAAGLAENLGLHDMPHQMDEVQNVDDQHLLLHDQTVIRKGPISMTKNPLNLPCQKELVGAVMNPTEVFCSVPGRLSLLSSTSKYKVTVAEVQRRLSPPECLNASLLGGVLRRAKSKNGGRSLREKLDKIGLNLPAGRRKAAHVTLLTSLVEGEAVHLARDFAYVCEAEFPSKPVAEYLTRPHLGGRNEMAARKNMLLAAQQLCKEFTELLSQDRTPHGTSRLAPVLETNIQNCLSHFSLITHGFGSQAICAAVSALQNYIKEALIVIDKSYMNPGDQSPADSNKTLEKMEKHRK

Compound | Kd [3, 9] [nM] | Kd [3, 10] [nM] | Kd [3, 11] [nM] | Kd [4] [nM] | Kd [5] [nM] | further results
Nc1ccc2nc3ccc(=O)cc-3n(-c3ccccc3)c2c1 [Ligand 4] | – | – | – | – | – | Selectivity for FoxA1 and AP2γ [1]: Negative; Ligand effect on FoxA1-DNA binding ([2]; ACP-430/Probe2-AuNP and CCP-410/Probe2-AuNP): negligible effect; Ligand influence on FoxA1-Probe2 binding ([2]; ACP-430/Probe2-AuNP): retain its binding capability
Probe1: FoxA1 DNA probe 5′-CACTTTGTTTGCAAAGC-3′ (SEQ ID NO: 1) with complementary strand; modified at the centre (antisense GCTTTGCAAACAAAGTG; DNA, backbone and methylation of C not given here; sense strand 5'-thiol-labelled, conjugated to gold nanoparticles) | 31.3 | 32.9 | 34.1 | 459 | 231 | –
Probe2: Ideal FoxA1 DNA probe 5′-GTACTGTAAATAAAACT-3′ (SEQ ID NO: 3) with complementary strand (antisense AGTTTTATTTACAGTAC; DNA, backbone and methylation of C not given here; sense strand 5'-thiol-labelled, conjugated to gold nanoparticles) | 4.47 | 5.76 | 5.02 | 47.8 | 16 | –
wtR3: GC rich wild-type DNA for AP-2γ, 5′-AAAGTGCCCAGAGCCCATG-3′ (SEQ ID NO: 7) with complementary strand (antisense CATGGGCTCTGGGCACTTT; DNA, backbone and methylation of C not given here; sense strand 5'-thiol-labelled, conjugated to gold nanoparticles) | – | – | – | – | – | Kd [6]: 139 nM; Kd ([7]; read-out: Binding constant (Kd), CP/dsDNA-AuNPs hybrid sensor (ACP-430)): 12.4 nM; Kd ([7]; read-out: Binding constant (Kd), CP/dsDNA-AuNPs hybrid sensor (ACP-560)): 14.6 nM; Kd ([7]; read-out: Binding constant (Kd), CP/dsDNA-AuNPs hybrid sensor (CCP-410)): 13 nM; Kd [8]: 50.6 nM
